In PMC8179358, “An explicitly designed paratope of amyloid-β prevents neuronal apoptosis in vitro and hippocampal damage in rat brain” (Chemical Science, 2020):
*1 amine or outer side, *2 acyl side, *3 side chain or, on linkers, in order; H or OH if unused. Where a SMILES comes first, the peptide text is derived from it. Bridges are numbered along the chain shown (N, C = ends). Roman numbers before positions name the chains, in order. [ ]: non-standard residue; d: D form. X1 = O=C(CCCCC(=O)[*:2])NCCCOCCOCCOCCCNC(=O)CCC(=O)[*:1]; NMeF = CN[C@@H](Cc1ccccc1)C(=O)O; NMeL = CN[C@@H](CC(C)C)C(=O)O; NMeV = CN[C@H](C(=O)O)C(C)C

Experiments:
SH-SY5Y cells = assay: LDH release assay, Aβ40 induced membrane damage; type: cell-based, human; conditions: Aβ40 10 μM, 24 h
Method: Then, we explored the membrane damage induced by Aβ40 (ref. [45] and [46]) using the lactate dehydrogenase (LDH) assay.
The release of cytosolic enzyme lactate dehydrogenase (LDH) into the culture medium indicates cell death due to the disruption of membrane integrity. Cell deathwas assessed by measuring LDH release in the culture medium by photocolorimetric kit according to the manufacturer’s protocol (Abcam, Cambridge, MA, USA). An increase in the number of lysed cell increases LDH activity in the culture medium proportionately. […]
Next, 50 µl culture supernatant was collected from each well and added to an assay mixture that was prepared by adding an equal amount of LDH substrate, co-factors, and dye solutions and incubated in the dark for 40mins at 37°C. […] Absorbance was measured at 490 nm with a reference filter of 660nm. […]
Generation of intracellular reactive oxygen species was measured by a spectrofluorimetric method using peroxide sensitive fluorescent probe 2′,7′-Dichlorofluorescin diacetate (DCFH-DA).11 In brief, SH-SY5Y […]
or both for 24h. […] Cells were then washed twice with PBS, and fluorescent intensity was measured by using a fluorescence microplate reader (Bio Rad, CA, USA) with an excitation filter of 490 nm and an emission filter of 520 nm.

Aβ40 [1] = target: T1, Aβ40 (Homo sapiens, UniProt P05067); assay: Thioflavin T assay, inhibition of Aβ40 amyloid formation; type: biochemical; conditions: ThT assay; Aβ40 50 μM; 5-fold molar excess; PBS 50 mM pH 7.4, 3% DMSO, 37 °C
T1 construct: 15N labeled (a) Aβ40 (80 μM)
Method: First, we monitored the kinetics of the amyloid formation of Aβ40 (50 μM) by thioflavin T (ThT) assay (Fig. 2a and b). The Aβ40 peptide alone aggregated with time, with a growth saturation point around 72 h, as evident from the surge in ThT fluorescence intensity. […] Green-gold birefringence appears to be a standard result of Aβ40 aggregation under cross-polarized light post-staining with Congo red dye. Owing to amyloid formation, Aβ40 appears as green-gold birefringence (Fig. 2d) under cross-polarized light when stained with Congo red.
400μL of the sample was taken in a cuvette of 1mm path length. Three measurements were accumulated.
Spectra were recorded from 190nm to 260nm on a JASCO J-1500 instrument. […]
1.5 mg of commercially available Aβ40 peptide was taken and disaggregated by TFA (50μ L) and evaporated under nitrogen gas. […] To obtain precise results, two more replicate solutions of each portion were prepared (total number of samples for this experiment was 27), and fibrillization was monitored by various biophysical tools. […]
b. Thioflavin T Fluorescence Assay
A stock solution of Thioflavin T (ThT) of concentration 50μM in PBS (50mM, pH 7.4) was prepared and stored at 4 °C with the proper protection to prevent degradation from light. […] For fluorescence studies, 40μLof peptide sample was mixed with 200μL of ThT solution (50μM), and the total volume was made up to 400μL using PBS. […]

Aβ40 [2] = target: T1, Aβ40; assay: NMR titration with SVD, residue-specific KD; type: binding; conditions: residues R5, L17, V24, K28, and G29 of Aβ40, read-out: dissociation constant (KD)

Compound | LDH release by Aβ40 alone (SH-SY5Y cells) | inhibition of Aβ40 amyloid formation (Aβ40 [1]) | Kd (Aβ40 [2])
Aβ40: commercially available Aβ40 peptide | released a significant amount of cytosolic LDH | – | –
CC(C)C[C@H](NC(=O)CNC(=O)CCC(=O)NCCCOCCOCCOCCCNC(=O)CCCCC(=O)NCC(=O)N(C)[C@@H](CC(C)C)C(=O)N[C@H](C(=O)N(C)[C@@H](Cc1ccccc1)C(=O)N[C@@H](Cc1ccccc1)C(=O)N[C@@H](C)C(N)=O)C(C)C)C(=O)N(C)[C@H](C(=O)N[C@@H](Cc1ccccc1)C(=O)N(C)[C@@H](Cc1ccccc1)C(=O)N[C@@H](C)C(N)=O)C(C)C [SP1] (I: GL[NMeV]F[NMeF]A-NH2 / II: G[NMeL]V[NMeF]FA-NH2; linker I:N-II:N via X1) | – | ~66% | ~200 µM
